# System: Pediculus capitis
# Test: Test 3: comparison of Example 1 formulation with 100% cyclomethicone spray, head louse mortality
# Format: in vivo
# Details: after 24 hours
# Protocol: A comparison test was also carried out between the formulation of Example 1, a compressed air spray similar to that described in Example 1, but containing 100% of cyclomethicone and a control composed of water.
# Head lice were obtained from volunteer children using the same procedures outlined above for test 1.
# The lice were distributed in groups of twenty onto squares of open mesh nylon gauze as a support substrate. Each group was placed on 90 millimetre plastic Petri dish.
# Each square (4 cm^2) of gauze with the lice attached was then massaged with approx. 5 ml of the formulation to be tested. This was done on the dry gauze so that the formulations could be used neat. The formulations were then left exposed to the air for the specified exposure time.
# After the lice had been exposed to the formulation to be tested for a given exposure time, water was added to the gauze, together with approx. 1 ml of shampoo and the gauze was massaged once more to produce a satisfactory foam. The gauze was then rinsed three times with 250 ml of warm tap water (34° C.) poured over and through the gauze squares. The gauze was then blotted dry with medical wipe tissue and incubated under normal maintenance conditions in clean plastic Petri dishes of appropriate dimensions until the results were recorded. […]
compound,measurement,value
"CC(=O)Oc1c(C)c(C)c2c(c1C)CCC(C)(CCC[C@H](C)CCC[C@H](C)CCCC(C)C)O2 (stereo partly drawn) [vitamin E acetate, d,l-alpha-Tocopherol acetate]",effect on the lice (inferred from Example 1 vs 100% cyclomethicone spray),significant effect

# Reference: patent US20110165094A1, “USE OF VITAMIN E OR DERIVATIVES THEREOF FOR THE CONTROL OF ARTHROPODS” (BIO.LO.GA S.R.L., priority 2008, published 2011)
